From patent publication US20240166641A1, “HETEROCYCLES AND USES THEREOF” (Kumquat Biosciences Inc., priority 2021, published 2024)

Assays:
[1] = biological target: T1, PTP1B (Homo sapiens, UniProt P18031); experiment: Phosphatase activity assay (Bio-Biochem-DiFMUP), PTP1B; assay type: biochemical; conditions: DiFMUP substrate, room temperature
T1 sequence (P18031 1-435): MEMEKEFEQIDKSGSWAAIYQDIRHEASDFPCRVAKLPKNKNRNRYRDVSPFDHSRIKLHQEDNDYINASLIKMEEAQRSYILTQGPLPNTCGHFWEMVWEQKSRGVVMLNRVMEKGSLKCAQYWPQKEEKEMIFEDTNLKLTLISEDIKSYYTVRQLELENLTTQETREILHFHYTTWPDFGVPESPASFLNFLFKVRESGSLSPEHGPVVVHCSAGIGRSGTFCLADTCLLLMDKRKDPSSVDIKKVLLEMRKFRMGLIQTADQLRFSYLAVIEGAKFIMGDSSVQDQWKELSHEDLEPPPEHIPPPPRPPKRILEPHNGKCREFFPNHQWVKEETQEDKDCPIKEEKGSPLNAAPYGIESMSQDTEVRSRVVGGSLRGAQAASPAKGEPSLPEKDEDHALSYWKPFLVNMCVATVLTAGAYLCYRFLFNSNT
Method in brief: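 Buffer was 50 mM Bis-Tris pH 6.3, 2 mM EDTA, 5 mM DMH, with 10 μM FDP or DiFMUP substrate, enzyme added last, at room temperature. Fluorescent product was read continuously for 15–30 min (DiFMU ex 360/em 450 nm; FMP ex 440/em 530 nm). Initial rates against 10-point inhibitor series were fitted with a 4-parameter equation to give IC50.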

[2] = system: mouse C57BL/6 T cells; experiment: pSTAT1 signaling in IFNα-stimulated T cells, flow cytometry; assay type: cell-based; conditions: T-cell, 10 uM compound, T cells stimulated for 5 hours by IFNα, read-out: % pSTAT1 in cells treated with subject compounds relative to negative control (DMSO)
Description: IFNα signaling in mouse C57BL/6 T cells promotes activation of multiple signaling pathways associated with antitumor responses. A key target of this signaling is phosphorylation of the transcription factor STAT1. […] T cells are stimulated for 5 hours by IFNα in the presence or absence of exemplified compounds disclosed herein (e.g., PTPN2 inhibitors) and stained intracellularly with antibodies for phosphorylated STAT1 and then analyzed by flow cytometry. Enhancement of phosphorylation of STAT1 is read out as a percentage over the DMSO control.

[3] = system: C57B3L/6 mouse primary T cells; experiment: T-cell activation: CD25 expression on primary T cells stimulated with anti-CD3/CD28; assay type: cell-based; conditions: 10 uM compound, primary T cells stimulated with antibodies to CD3 and CD28
Description: The increase of T cell activation and most importantly T cell function is a strategy for novel immune oncology approaches to promote tumor immunity. In vitro assays using wildtype C57B3L/6 mouse primary T cells are commonly used to assess the impact of compound on T cell activation and function. To assess the ability of compounds disclosed here (e.g., PTPN2 inhibitors) to stimulate T cell activation, primary T cells stimulated with antibodies to CD3 and CD28 are treated with or without exemplary compounds (at 10 uM) disclosed herein are stained with antibodies directed to T-cell activation markers, such as CD25. Additional markers including without limitation CD69, SLAMF6, TIM3, and PD1 can also be employed as a proxy for T cell activation.

[4] = system: OT-1 cells; experiment: T-cell activation: intracellular production of IFNγ and TNFα in exhausted OT-1 cells; assay type: cell-based; conditions: 10 uM compound, OT-1 cells restimulated with 1 μM OVA, read-out: % TNFa + /IFNg + production in compound-treated cells (uM compound) relative to negative control (DMSO)
Description: 1*10^6 OT-1 cells are seeded in a 24well in a volume of 1 mL of RPMI/10% FCS, and activated with 10 nM OVA protein for 48 h. Cells are then split 1:4 into 96well plates after two washes in warm media. To induce exhaustion, cells are then expanded for 3 days in the presence of vehicle control or a compound described herein (e.g., PTPN2 inhibitor) various concentrations, as well as 5 ng/ml IL-7 and 5 ng/ml IL-15, with the addition of fresh OVA on each day. After this point, cells are treated with Brefeldin A and restimulated with 1 μM of OVA for 4-6h, and cells are stained to assess production of IFNγ and TNFα intracellularly by flow cytometry. The results are shown as increase in percentage production of IFNγ and TNFα in cells treated with an exemplified compound at 10 uM, relative to a negative control (DMSO) of cells without being treated with the compound but merely DMSO (a solvent in which exemplified compounds are dissolved). See Table 10 below summarizes percentage increase in IFNγ and TNFα intracellular production in cells treated with an exemplified compound (at 10 uM) or without it, relative to a negative control (DMSO).

Compound	IC50 [1] [µM]	activity at 10 µM [2] [%]	% CD25 expression in cells treated with subject compounds relative to negative control (DMSO) [3] [%]	activity at 10 µM [4] [%]
CC(C)CCNc1ccc2cc(O)c(N3CC(=O)NS3(=O)=O)c(F)c2n1 [Compound 117]	≤ 1	210	363	236
CC(C)CCOc1ccc2cc(O)c(N3CC(=O)NS3(=O)=O)c(F)c2n1 [Compound 135, 5-(8-fluoro-6-hydroxy-2-(isopentyloxy)quinolin-7-yl)-1,2,5-thiadiazolidin-3-one 1,1-dioxide]	≤ 1	255	431	504
O=C1CN(c2c(O)cc3ccc(OCC4CCS(=O)(=O)CC4)nc3c2F)S(=O)(=O)N1 [Compound 143]	≤ 1	161	323	174
CNc1ccc2cc(O)c(N3CC(=O)NS3(=O)=O)c(F)c2n1 [Compound 153]	≤ 1	249	–	132
COc1ccc2cc(O)c(N3CC(=O)NS3(=O)=O)c(F)c2n1 [Compound 154]	≤ 1	303	–	152
CN1CCCC(COc2ccc3cc(O)c(N4CC(=O)NS4(=O)=O)c(F)c3n2)C1 (stereo not shown) [Compound 176]	≤ 1	229	206	193
CN(C)CCOc1ccc2cc(O)c(N3CC(=O)NS3(=O)=O)c(F)c2n1 [Compound 178]	≤ 1	172	–	168
